Laboratory results published in US8377957B2, “Hydroxy and alkoxy substituted 1H-imidazoquinolines and methods” (3M Innovative Properties Company, priority 2005, dated 2013).

| SMILES | melting point [°C] |
| --- | --- |
| C[C@@H](c1ccccc1)n1c(O)nc2c(N)nc3ccccc3c21 [Example 5, 4-Amino-1-[(1S)-1-phenylethyl]-1H-imidazo[4,5-c]quinolin-2-ol] | 292 to 295 |
| COc1nc2c(N)nc3ccccc3c2n1Cc1ccccc1 [Example 7, 1-Benzyl-2-methoxy-1H-imidazo[4,5-c]quinolin-4-amine] | 240 to 242 |
